Data set [1] in a line: Toxicity in the nude mouse MCF7 xenograft study. The conditions noted are these: nude mice; for death: dead/total.
For data set [2] the following is noted: data reported previously; cited from earlier work.
For data set [3], the system named is human tumor cell line (HTCL) panel (A549, KB, KBvin, DU145). Briefly: SRB antiproliferative activity, ranges over the HTCL panel. It is filed as cell-based. The conditions noted are these: read-out: GI50 range over HTCL panel.
Data set [4] has as its system tubulin (vinblastine site). The data set is described as follows: Competitive inhibition assay, BODIPY FL-vinblastine binding to tubulin. The arrangement: species or system dog. The conditions noted are these: tubulin 4 μM, BODIPY FL-vinblastine 2 μM; even at 30–100 μM.
Data set [5] relates to A549 cells. The data set is described as follows: Cell cycle analysis by propidium iodide flow cytometry. It is filed as cell-based, human. The conditions noted are these: A549, 24 h; 5f 3 nM, colchicine 300 nM. For orientation: In flow cytometry, cells or beads pass a laser one at a time.
The subject of data set [6] is A549 cells. The data set is described as follows: Immunocytochemistry of cellular microtubules. The conditions noted are these: A549, 24 h; 5f 3 nM, paclitaxel 100 nM, colchicine 100 nM. The class given is cell-based, human.
Data set [7] relates to MCF7 tumor xenografts. Briefly: Nude mouse MCF7 xenograft antitumor assay. It is filed as in vivo. The conditions noted are these: 4 mg/kg i.v. every 3 days; p < 0.05 from day 10 onward.

Structures are written as SMILES. Entries after “also recorded” stand apart in the source; their conditions may differ.

Take `COc1ccc2c(c1)CCCN2c1nc(Cl)nc2ccccc12` [1a, 2-chloro-4-(6-methoxy-3,4-dihydroquinolin-1(2H)-yl)quinazoline]: the death in data set [1] (4 mg/kg i.v., Q3D × 6) is 0/5.

`COc1ccc2c(c1)CCCN2c1nc(C)nc2ccccc12` [1b, 2-methyl-4-(6-methoxy-3,4-dihydroquinolin-1(2H)-yl)quinazoline]: in data set [2], the “human liver microsome t1/2” value is recorded as 25.2 min. Also, the death in data set [1] (4 mg/kg i.v., Q3D × 6) is 1/6. With `Cc1ccc2c(c1)CCCN2c1nc(Cl)nc2ccccc12` [4a, 2-Chloro-4-(N-(6-methyl-3,4-dihydroquinolinyl))quinazoline], the 50% growth inhibitory concentration (GI50) in data set [3] is 43 to 57 nM. Same read-out and setting: for `Cc1ccc2c(c1)CCCN2c1nc(C)nc2ccccc12` [4b, 2-Methyl-4-(N-(6-methyl-1,2,3,4-tetrahydroquinolinyl))-quinazoline] the value was 169 to 211 nM. The same measure, in the same setting: next, `Cc1nc(N2CCCc3cc(Br)ccc32)c2ccccc2n1` [4c, 4-(N-(6-Bromo-1,2,3,4-tetrahydroquinolinyl))-2-methylqui-nazoline]: 169 to 211 nM; `COc1ccc2c(c1)C(=O)CCN2c1nc(Cl)nc2ccccc12` [5a, 2-Chloro-4-(N-(6-methoxy-2,3-dihydro-4-oxoquinolinyl))-quinazoline]: 27 to 33 nM. On to `COc1ccc2c(c1)C(=O)CCN2c1nc(C)nc2ccccc12` [5b, 4-(N-(6-Methoxy-2,3-dihydro-4-oxoquinolinyl))-2-methyl-quinazoline], for which the concentration for 50% growth inhibition (GI50) in data set [3] lay in the range of 19 to 24 nM. Regarding `COc1ccc2c(c1)C(O)CCN2c1nc(C)nc2ccccc12` (centres unmarked) [5c, 4-(N-(4-Hydroxy-6-methoxy-1,2,3,4-tetrahydroquinolinyl))-2-methylquinazoline], the GI50 in data set [3] is 17 to 19 nM. As for `COc1ccc2c(c1)OCCN2c1nc(Cl)nc2ccccc12` [5d, 2-Chloro-4-(N-(7-methoxy-3,4-dihydro-2H-benzo[b][1,4]-oxazinyl))quinazoline], the concentration for 50% growth inhibition (GI50) in data set [3] is 153 to 211 nM.

For the compound `COc1ccc2c(c1)OCCN2c1nc(C)nc2ccccc12` [5e], the 50% growth inhibitory concentration (GI50) in data set [3] is 153 to 211 nM. Take `COc1ccc2c(c1)NC(=O)CN2c1nc(C)nc2ccccc12` [5f, 2-Methyl-4-(7-methoxy-2-oxo-3,4-dihydroquinoxalin-4(1H)-yl)quinazoline]: the GI50 in data set [3] was 1.9 to 3.2 nM. The “effect on binding of BODIPY FL-vinblastine to tubulin” value in data set [4] is “did not significantly change; also recorded: did not compete”. Besides, in data set [5], the “effect on the cell cycle” value is recorded as “arrested at the G2/M phase”. The “effect on cellular microtubule network” value in data set [6] is “microtubule network disappeared”. In addition, the toxicity observation entry in data set [1] (4 mg/kg i.v. every 3 days, 4 mg/kg) is “toxicity and death; also recorded: all seven mice died; also recorded: death of all treated mice”. The death in data set [1] (4 mg/kg i.v., Q3D × 6) is 7/7. On to `COc1ccc2c(c1)N(C)C(=O)CN2c1nc(C)nc2ccccc12` [5g, 2-Methyl-4-(1-methyl-7-methoxy-2-oxo-3,4-dihydroquinox-alin-4-yl)quinazoline], for which, in data set [3], the GI50 fell in the range of 17 to 25 nM. In addition, the “growth of MCF7 tumor xenografts (tumor volume vs control)” value in data set [7] is listed as “significantly inhibited”. In data set [1] (4 mg/kg i.v., Q3D × 6), the “body weight change (%)” value is “+2.28%” and the death is on record as 0/7. On to `COc1ccc2c(c1)CCN2c1nc(Cl)nc2ccccc12` [5h, 2-Chloro-4-(N-(5-methoxy)indolinyl)quinazoline], for which the GI50 in data set [3] was 170 to 320 nM. The same measure, in the same setting: next, `COc1ccc2c(c1)CCN2c1nc(C)nc2ccccc12` [5i, 4-(N-(5-Methoxy)indolinyl)-2-methylquinazoline]: 170 to 320 nM; `COc1ccc2c(c1)CCCCN2c1nc(C)nc2ccccc12` [5k, 4-(N-(7-Methoxy-2,3,4,5-tetrahydro-1H-benzo[b]azepinyl))-2-methylquinazoline]: 18 to 21 nM; `COc1ccc2c(c1)CCCN(c1nc(Cl)nc3ccccc13)C2` [5l, 2-Chloro-4-(N-(7-methoxy-2,3,4,5-tetrahydro-1H-benzo[c]-azepinyl))quinazoline]: 5450 to 19600 nM. The same measure, in the same setting: for `COc1ccc2c(c1)CCCN(c1nc(C)nc3ccccc13)C2` [5m, 4-(N-(7-Methoxy-2,3,4,5-tetrahydro-1H-benzo[c]azepinyl))-2-methylquinazoline] the value was 5450 to 19600 nM.

On to `COc1cc2c(c(OC)c1OC)-c1ccc(OC)c(=O)cc1[C@@H](NC(C)=O)CC2` [colchicine, reference compound], for which, in data set [5], the “effect on the cell cycle” value was “arrested at the G2/M phase”. The “effect on cellular microtubule network” value in data set [6] is given as “microtubule network disappeared”. `CC(=O)O[C@H]1C(=O)[C@@]2(C)[C@H]([C@H](OC(=O)c3ccccc3)[C@]3(O)C[C@H](OC(=O)[C@H](O)[C@@H](NC(=O)c4ccccc4)c4ccccc4)C(C)=C1C3(C)C)[C@]1(OC(C)=O)CO[C@@H]1C[C@@H]2O` [paclitaxel]: the “effect on cellular microtubule network” value in data set [6] was “retained a spindle-shaped microtubule network”.

Broadly, the GI50 is the concentration giving 50% growth inhibition.

The values are drawn from paper PMC3983391 (Journal of medicinal chemistry, 2014).
